Data on three compounds can be found in US5574062A, “Coumarin derivative and use thereof” (Morinaga Milk Industry Co., Ltd., priority 1993, dated 1996).

Data set [1] concerns the target T1, 5-lipoxygenase (Rattus norvegicus, UniProt P12527).
T1 construct: host or cells: RBL-1 (rat basophilic leukemia cells)
T1 sequence (P12527 1-673): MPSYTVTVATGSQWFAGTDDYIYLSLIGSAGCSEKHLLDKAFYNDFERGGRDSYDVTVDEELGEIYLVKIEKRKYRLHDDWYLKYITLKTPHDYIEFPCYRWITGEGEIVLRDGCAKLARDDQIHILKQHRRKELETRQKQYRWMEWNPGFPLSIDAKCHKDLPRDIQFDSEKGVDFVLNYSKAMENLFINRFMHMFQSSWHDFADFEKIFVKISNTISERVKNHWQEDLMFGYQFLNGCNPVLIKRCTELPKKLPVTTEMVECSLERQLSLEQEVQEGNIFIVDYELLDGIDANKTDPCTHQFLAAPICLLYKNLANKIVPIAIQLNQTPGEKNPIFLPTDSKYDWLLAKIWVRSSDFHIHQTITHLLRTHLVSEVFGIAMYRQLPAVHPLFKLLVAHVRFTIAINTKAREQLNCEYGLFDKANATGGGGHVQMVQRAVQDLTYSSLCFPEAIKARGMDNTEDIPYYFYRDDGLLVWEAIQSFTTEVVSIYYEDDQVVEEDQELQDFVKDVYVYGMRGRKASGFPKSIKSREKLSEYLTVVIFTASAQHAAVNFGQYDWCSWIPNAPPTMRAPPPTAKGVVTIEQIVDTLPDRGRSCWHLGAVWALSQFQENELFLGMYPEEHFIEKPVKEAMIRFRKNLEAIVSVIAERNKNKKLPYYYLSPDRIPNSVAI
Put plainly: 5-lipoxygenase inhibition assay (RBL-1 supernatant, arachidonic acid, HPLC of 5-HETE). It is filed as biochemical, rat (basophilic leukemia cells RBL-1, ATCC CRL1378). As for the experimental part: Rat basophilic leukemia cells (RBL-1, ATCC CRL1378) were cultured in Dulbecco modified Eagle's medium containing 10% new-born bovine serum.
Cultured cells were collected and washed twice with a 50 mM Tris-buffered saline (containing 154 mM sodium chloride, pH: 7.4, hereinafter described as TBS). The cell suspension (4×10^7 cells/ml) was then sonicated and centrifuged at 10,000×g for 10 minutes.
The resultant supernatant was used to prepare an assay solution.
To an aliquot (15 μl) of the enzyme solution (40 mU/ml equivalent) was added 185 μl of TBS, 50 μl of a 2 mM adenosine triphosphate in TBS, 50 μl of a 12 mM calcium chloride in TBS, 1 μl of a 3 mM indomethacin in ethanol solution, 1 μl of an aqueous 300 mM reduced glutathione solution, and 3 μl of varied concentrated test compounds solution in ethanol. The resultant mixture was incubated at 37° C. for 5 minutes. Subsequently, 3 μl of a 2.5 mM arachidonic acid solution in ethanol was added to incubate the mixture for 2 minutes at 37° C. The reaction was ceased by the addition of 600 μl of methanol. After being centrifuged at 10,000×g for 5 minutes, 5-hydroxyeicosatetraenoic acid recovered in the supernatant was separated with a reverse phase high-performance liquid chromatography equipped with a C-18 column and measured the absorption of diene at 234 nm to quantify the activity of the enzyme.
Using the compounds of the present invention prepared in the same manner as in Examples 1-30, and Examples 33-36 as test samples and known baicalein (purchased from Wako Junyaku Kogyo) represented by the following formula 30 as a control: [drawing 34] the tests were performed for dose dependent inhibition to estimate IC50 values
It was prepared in the same method as in Test Example 2.
They were measured in the same method as in Test Example 2.

In data set [2] the test system is 12-lipoxygenase of mastocytoma cells. The following applies: literature; cited from earlier work.
Data set [3] deals with T2, 12-lipoxygenase (Rattus norvegicus, UniProt F1LQ70).
T2 construct: The platelets were then sonicated at 4° C. and centrifuged at 100,000×g for 30 minutes to obtain a supernatant as a 12-lipoxygenase enzyme solution; from tissue; host or cells: Sprague Dawley rat platelets (from aortic blood), sonicated, 100,000 x g supernatant
T2 sequence (F1LQ70 1-663): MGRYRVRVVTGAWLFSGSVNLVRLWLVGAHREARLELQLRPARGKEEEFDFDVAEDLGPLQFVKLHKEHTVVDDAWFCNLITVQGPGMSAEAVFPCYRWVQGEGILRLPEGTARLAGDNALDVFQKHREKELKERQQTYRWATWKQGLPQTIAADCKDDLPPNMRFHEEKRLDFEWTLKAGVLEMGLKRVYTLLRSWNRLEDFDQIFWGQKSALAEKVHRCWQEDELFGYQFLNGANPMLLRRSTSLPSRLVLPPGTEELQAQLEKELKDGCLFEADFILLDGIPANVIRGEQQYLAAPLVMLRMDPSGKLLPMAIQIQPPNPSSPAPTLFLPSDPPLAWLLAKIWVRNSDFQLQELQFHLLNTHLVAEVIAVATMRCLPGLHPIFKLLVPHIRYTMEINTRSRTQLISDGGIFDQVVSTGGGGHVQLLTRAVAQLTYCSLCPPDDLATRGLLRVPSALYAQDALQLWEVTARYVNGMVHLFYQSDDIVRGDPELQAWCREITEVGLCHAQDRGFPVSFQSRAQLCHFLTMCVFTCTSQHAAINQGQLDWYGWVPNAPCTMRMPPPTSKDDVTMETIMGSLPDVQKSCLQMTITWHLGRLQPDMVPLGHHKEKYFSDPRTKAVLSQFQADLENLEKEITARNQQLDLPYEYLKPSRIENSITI
Put plainly: 12-lipoxygenase inhibition assay (rat platelet supernatant, arachidonic acid, HPLC of 12-HETE). The data set is classed as biochemical, Sprague Dawley male rat (platelets). As for the experimental part: (§1) A Sprague Dawley male rat was anesthetized with ether and bled from abdominal aorta using a syringe filled with about one-tenth volume of 3.8% sodium citrate. Blood was centrifuged at 180×g for 15 minutes at room temperature to pellet sanguineous platelet blood plasma. The resultant supernatant was again centrifuged at 1800×g for 10 minutes at 4° C. The pelleted platelets were rinsed twice with a washing buffer (50 mM Tris-hydrochloric acid buffer containing 154 mM sodium chloride and 2 mM EDTA, pH: 7.4). The platelets were then suspended in one-twentieth volume of a resuspension buffer (50 mM Tris-hydrochloric acid buffer containing 154 mM sodium chloride and 5.5 mM glucose, pH: 7.4). The platelets were then sonicated at 4° C. and centrifuged at 100,000×g for 30 minutes to obtain a supernatant as a 12-lipoxygenase enzyme solution.
(§2) The enzyme solution described above was diluted with the resuspension buffer above mentioned to prepare an assay solution so as to include about 2 mU/ml of 12-lipoxygenase. To an aliquot (300 μl) of the assay solution was added 1 μl of a 3 mM indomethacin-ethanol solution, 1 μl of an aqueous 300 mM reduced-glutathione solution, and 3 μl of varied concentrated test compounds solution in ethanol. The resultant mixture was incubated at 37° C. for 5 minutes. Subsequently, 3 μl of a 2.5 mM arachidonic acid solution in ethanol was added to incubate with for another 5 minutes at 37° C., then the reaction was ceased by the addition of 600 μl of methanol. After being centrifuged at 10,000×g for 5 minutes, 12-hydroxyeicosatetraenoic acid recovered in the supernatant was separated with a reverse phase high-performance liquid chromatography equipped with a C-18 column and measured the absorption of diene at 234 nm to quantify the activity of 12-lipoxygenase.
(§3) As test compounds were used the compounds of the present invention prepared in the same methods as in Example 4, Example 5 and Example 8 and the compounds prepared in the same methods as in Comparative Examples 1-5, and as a control was used esculetin (purchased from Tokyo Kasei), a known compound represented by the following formula: [drawing 33] and the test was conducted at varied concentrations.
(§4) The enzyme solution was prepared according to the same manner as in Test Example 1.
(§5) The inhibition assay was performed according to the same method as described in Test Example 1 except that the same samples used in measurement of the 5-lipoxygensase activity were used to estimate IC50 values. […]
(§6) They were measured in the same method as in Test Example 1.

For data set [4], the system named is 12-lipoxygenase. The description is as above. It is filed as biochemical, Sprague Dawley male rat (platelets). The following applies: comparative tests by the inventors. As for the experimental part: as §1, §2, §3, §4, §5, §6
For data set [5], the system named is esterases present in the enzyme solution. Put plainly: Formation of deacylated compounds by esterases in rat platelet enzyme solution (HPLC). The following applies: resuspension buffer instead of the enzyme solution. It is filed as in vitro ADME, rat (platelets). Here is the method: (§7) The test was performed to examine whether or not deacylated compounds would be formed due to esterases present in the enzyme solution when the compounds in the third embodiment according to the present invention were treated with the same enzyme solution as in Test Example 3.
(§8) The enzyme solution was prepared according to the same procedure as described in Test Example 1.
(§9) One ml of the above mentioned enzyme solution was diluted with 11 ml of a resuspension buffer. To an aliquot (300 μl) of this enzyme solution was added 3 μl of a 1.0×10^-3 M test compound solution in dimethyl sulfoxide. The mixture was incubated at 37° C. for an indicated time, then the reaction was ceased by the addition of 1 ml of acetonitrile. Twenty μl of the above mixture was subjected to reverse phase high-performance liquid chromatography equipped with a C-18 column to quantify the amount of deacylated products. As a control, a test using 300 μl of the resuspension buffer solution mentioned above instead of the enzyme solution was also performed.
(§10) Conditions of reverse phase high-performance liquid chromatography:
(§11) Column: Superspher RP-18(e) (purchased from Merck), 4.0 mm in diameter, 125 mm in length
(§12) Flow velocity: 1.0 ml/minute
(§13) Eluent: Acetonitrile containing 50 mM NaClO4 and 50 mM orthophosphate-water (55:45)
(§14) Column temperature: 30° C.
(§15) Calibration: Absorbance of 280 nm
(§16) The results of the test upon the compounds of Example 40 (Formula 43b) and Example 57 (Formula 74b) of the compounds according to the present invention will be shown. Since both the compounds of Example 40 (Formula 43b) and Example 57 (Formula 74b) are thought to be converted into the compound of Referential Example 8 (Formula 34b) through deacylation, the retention time of the compound of Referential Example 8 was checked strictly under the employed conditions with reverse phase high-performanceliquid chromatography mentioned above (retention time: 2.49 minutes) and a calibration curve of the compound was made using authentic sample of Referential Example 8.

Experiment in data set [6]: as above
The settings on record: rat, platelet enzyme solution, 37° C., enzyme solution, read-out: conversion ratio to Formula 34b. The data set is classed as in vitro ADME, rat (platelets). Here is the method: as §7, §8, §9, §10, §11, §12, §13, §14, §15, §16

Data set [7] concerns 5-lipoxygenase. The following applies: 10 uM, cited from earlier work.
For data set [8], the system named is 12-lipoxygenase. The following applies: same concentration (10 uM), platelets; cited from earlier work.

In general, IC50 refers to the concentration that inhibits the measured activity by half.

On to `O=c1ccc2cc(O)c(O)cc2o1` [Esculetin, 6,7-dihydroxycoumarin, reference compound], for which the IC50 on 5-lipoxygenase [1] is 4.3 µM; in data set [2] it was 2500 nM; at 12-lipoxygenase [3] (12-Lipoxygenase inhibiting activity IC50 value, Test Example 5, Table 22), 4.4 µM; at 12-lipoxygenase [3] (12-lipoxygenase IC50 value, Test Example 1, Table 1 and text), 4.4 µM. Besides, on 12-lipoxygenase [3], the “12-lipoxygenase inhibitory activity (in words)” value is reported as “considerably weaker inhibitory effect on 12-lipoxygenase than the compounds of the present invention”. In addition, the “selectivity between 12-lipoxygenase and 5-lipoxygenase (in words)” value with 12-lipoxygenase [4] was “no selectivity was found”.
In the case of `CCC(=O)Oc1cc2cc(-c3cccc(Cl)c3)c(=O)oc2cc1OC(=O)CC` [Example 57], the “formation of deacylated compound in buffer control” value in data set [5] was “no deacylated compound (Formula 34b) was formed”. The metabolised at 0.5 h, 10 µM in data set [6] (reaction time 30 minute) stood at 42.4%. The metabolised at 1 h, 10 µM in data set [6] (reaction time 60 minute) came out at 60.4%.
For `Oc1ccc(C2COc3cc(O)c(O)cc3C2)cc1` (stereo not drawn) [compound of 12), 4',6,7-trihydroxyisoflavan], the “inhibition of formation of 5-lipoxygenase metabolic products” value in the data set on 5-lipoxygenase [7] (human peripheral leukocytes) was “completely”. Also, the “selectivity between 5-lipoxygenase and 12-lipoxygenase (in words)” value in the data set with 5-lipoxygenase [7] (literature, leukocytes vs. platelets) was “selective toward 5-lipoxygenase”. For the same compound, the “inhibition of formation of 12-lipoxygenase metabolic products” value with 12-lipoxygenase [8] was 25%.
